Several values for one entry are separate records, joined by “and”; a condition that tells them apart may be missing. Equal entries are not always repeated. Structures can show the parent of a compound that is named as a salt. Where two headings read alike, the source gives them in different places.
Key:
[1] = target: T1, wild type human RORγt ligand binding domain (RORyt LBD) (Homo sapiens, UniProt P51449); assay: RORγt ThermoFluor assay (thermal shift, binding affinity KD)
T1 construct: His-tag (N); TurboTEV protease cleavage site (ENLYFQG) (N); made in house; host or cells: E. coli (pHIS1, modified pET vector)
T1 sequence (P51449 258-518): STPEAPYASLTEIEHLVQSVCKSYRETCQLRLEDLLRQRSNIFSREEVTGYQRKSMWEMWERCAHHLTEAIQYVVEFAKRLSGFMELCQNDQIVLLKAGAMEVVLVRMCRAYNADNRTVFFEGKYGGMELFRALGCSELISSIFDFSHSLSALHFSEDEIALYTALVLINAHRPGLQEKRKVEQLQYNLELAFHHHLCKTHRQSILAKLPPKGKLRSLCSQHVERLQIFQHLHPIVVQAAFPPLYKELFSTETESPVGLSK

[2] = target: T2, wild type human RORγt LBD (Homo sapiens, UniProt P51449); assay: RORγt (LBD) Reporter Assay (GAL4-luciferase, HEK293T cells); assay type: cell-based; conditions: for inhibition at 6 µM: HEK-293T, read-out: RORγt (LBD) Reporter Assay, % inhibition @ 6 µM, 6 µM compound concentration
T2 construct: expressed in transfected cells; host or cells: HEK293T
T2 sequence (P51449 258-518): T1 sequence (P51449 258-518)

[3] = HEK293T cells, value after the comma with ∼, > or < could not be included in the average

Row | SMILES | Kd [1] | IC50 [2, 3] | inhibition at 6 µM [2] | IC50 ([2]; HEK293T cells) | inhibition at 6 µM ([2]; HEK293T cells)
1 | COc1nc2ccc(C(O)(c3ccc(C#N)cc3)c3cncn3C)cc2c(Cl)c1Cc1ccc(C(F)(F)F)nc1 (centres unmarked) [Example 38a, 4-((4-Chloro-2-methoxy-3-((6-(trifluoromethyl)pyridin-3-yl)methyl)quinolin-6-yl)(hydroxy)(1-methyl-1H-imidazol-5-yl)methyl)benzonitrile] | 55 nM | 1.9 nM | 100% |  | 
2 | COc1nc2ccc(C(O)(c3ccc(C)nc3C)c3cnnn3C)cc2c(C#N)c1Cc1ccc(C(F)(F)F)nc1 (centres unmarked) [Example 41a, 6-((2,6-Dimethylpyridin-3-yl)(hydroxy)(1-methyl-1H-1,2,3-triazol-5-yl)methyl)-2-methoxy-3-((6-(trifluoromethyl)pyridin-3-yl)methyl)quinoline-4-carbonitrile] | 2.8 nM | 24 nM | 99% |  | 
3 | COc1nc2ccc(C(O)(c3cnnn3C)c3cnc(C)n3C)cc2c(Cl)c1Cc1ccc(C(F)(F)F)nc1 (centres unmarked) [Example 43a, (4-Chloro-2-methoxy-3-((6-(trifluoromethyl)pyridin-3-yl)methyl)quinolin-6-yl)(1,2-dimethyl-1H-imidazol-5-yl)(1-methyl-1H-1,2,3-triazol-5-yl)methanol] | 1 nM | 7.9 nM | 98% |  | 
4 | COc1nc2ccc(C(O)(c3ccccc3)C3CCN(C(C)=O)CC3)cc2c(Cl)c1Cc1ccc(F)cc1 (centres unmarked) [Example 50, 1-(4-((4-Chloro-3-(4-fluorobenzyl)-2-methoxyquinolin-6-yl)(hydroxy)(phenyl)methyl)piperidin-1-yl)ethanone] | 10 nM | ~4000 nM | 82% |  | 
5 | COCCOc1nc2ccc(C(O)(c3ccc(Cl)cc3)c3cncn3C)cc2c(Cl)c1Cc1ccc(-n2cccn2)cc1 (centres unmarked) [Example 56] | 200 nM | 450 nM | 101% |  | 
6 | CCCCc1nc2ccc(C(O)(c3cccnc3)c3cccc(F)c3)cc2c(Cl)c1Cc1ccc(-n2cccn2)cc1 (centres unmarked) [Example 60, (3-(4-(1H-Pyrazol-1-yl)benzyl)-2-butyl-4-chloroquinolin-6-yl)(3-fluorophenyl)(pyridin-3-yl)methanol•TFA] | 3100 nM | 620 nM and ~2000 nM | 83% |  | 
7 | COc1nc2ccc(C(O)(c3cccnc3)c3cccc(F)c3)cc2c(Cl)c1Cc1ccc(-n2cccn2)cc1 (centres unmarked) [Example 61, (3-(4-(1H-Pyrazol-1-yl)benzyl)4-chloro-2-methoxyquinolin-6-yl)(3-fluorophenyl)(pyridin-3-yl)methanol] | 12 nM | 83 nM | 99% |  | 
8 | COc1nc2ccc(C(O)(c3ccc(Cl)cc3)c3cccnc3)cc2c(Cl)c1Cc1ccc(-n2cccn2)cc1 (centres unmarked) [Example 62, (3-(4-(1H-pyrazol-1-yl)benzyl)4-chloro-2-methoxyquinolin-6-yl)(4-chlorophenyl)(pyridin-3-yl)methanol] | 41 nM | 120 nM | 107% |  | 
9 | COc1ccc(C(O)(c2cccnc2)c2ccc3nc(OC)c(Cc4ccc(-n5cccn5)cc4)c(Cl)c3c2)cc1 (centres unmarked) [Example 63] | 68 nM | 140 nM | 99% |  | 
10 | CC(=O)N1CCC(C(O)(c2ccc(F)cc2)c2ccc3nc(OC(F)F)c(Cc4cncnc4)c(OC(F)F)c3c2)CC1 (centres unmarked) [Example 72, 1-(4-((2,4-bis(Difluoromethoxy)-3-(pyrimidin-5-ylmethyl)quinolin-6-yl)(4-fluorophenyl)(hydroxy)methyl)piperidin-1-yl)ethanone] | 1100 nM | 1200 nM | 53% |  | 
11 | Cn1cncc1C(O)(c1ccc2nc(C(F)(F)F)c(Cc3ccccc3)c(Cl)c2c1)c1ccccn1 (centres unmarked) [Example 97, (3-Benzyl-4-chloro-2-(trifluoromethyl)quinolin-6-yl)(1-methyl-1H-imidazol-5-yl)(pyridin-2-yl)methanol•TFA] | 67 nM | 200 nM | 96% |  | 
12 | Cn1cncc1C(O)(c1ccc(Cl)cc1)c1ccc2nc(C(F)(F)F)c(Cc3ccccc3)c(Cl)c2c1 (centres unmarked) [Example 100, (3-benzyl-4-chloro-2-(trifluoromethyl)quinolin-6-yl)(4-chlorophenyl)(1-methyl-1H-imidazol-5-yl)methanol•TFA] | 25 nM | 220 nM | 78% |  | 
13 | Cn1cncc1C(O)(c1ccc(Cl)cc1)c1ccc2nc(C(F)(F)F)c(Cc3ccccc3)c(O)c2c1 (centres unmarked) [Example 102, 3-Benzyl-6-((4-chlorophenyl)(hydroxy)(1-methyl-1H-imidazol-5-yl)methyl)-2-(trifluoromethyl)quinolin4-ol•TFA] | 1300 nM | 1900 nM | 94% |  | 
14 | Cn1cncc1C(O)(c1ccc(Cl)cc1)c1ccc2nc(C(F)(F)F)c(Cc3ccccc3)c(C#N)c2c1 (centres unmarked) [Example 103, 3-Benzyl-6-((4-chlorophenyl)(hydroxy)(1-methyl-1H-imidazol-5-yl)methyl)-2-(trifluoromethyl)quinoline-4-carbonitrile•TFA] | 9.4 nM | 33 nM | 81% |  | 
15 | Cn1cncc1C(O)(c1ccc(C#N)cc1)c1ccc2nc(C(F)(F)F)c(Cc3ccccc3)c(C#N)c2c1 (centres unmarked) [Example 104, 3-Benzyl-6-((4-cyanophenyl)(hydroxy)(1-methyl-1H-imidazol-5-yl)methyl)-2-(trifluoromethyl)quinoline-4-carbonitrile•TFA] | 6.3 nM | 19 nM | 82% |  | 
16 | Cn1cncc1C(O)(c1ccc(C(F)(F)F)nc1)c1ccc2nc(C(F)(F)F)c(Cc3ccccc3)c(Cl)c2c1 (centres unmarked) [Example 105, (3-Benzyl-4-chloro-2-(trifluoromethyl)quinolin-6-yl)(1-methyl-1H-imidazol-5-yl)(6-(trifluoromethyl)pyridin-3-yl)methanol•TFA] | 5.6 nM | > 6000 nM | 38% |  | 
17 | COc1c(Cc2ccccc2)c(C(F)(F)F)nc2ccc(C(O)(c3ccc(C(F)(F)F)nc3)c3cncn3C)cc12 (centres unmarked) [Example 106a, (3-Benzyl-4-methoxy-2-(trifluoromethyl)quinolin-6-yl)(1-methyl-1H-imidazol-5-yl)(6-(trifluoromethyl)pyridin-3-yl)methanol•TFA] | 48 nM |  | 84% |  | 
18 | Cn1cncc1C(O)(c1ccc(C(F)(F)F)nc1)c1ccc2nc(C(F)(F)F)c(Cc3ccccc3)c(O)c2c1 (centres unmarked) [Example 107, 3-Benzyl-6-(hydroxy(1-methyl-1H-imidazol-5-yl)(6-(trifluoromethyl)pyridin-3-yl)methyl)-2-(trifluoromethyl)quinolin-4-ol•TFA] | 3400 nM | 5600 nM | 57% |  | 
19 | Cn1cncc1C(O)(c1ccc(C(F)(F)F)nc1)c1ccc2nc(C(F)(F)F)c(Cc3ccccc3)c(C#N)c2c1 (centres unmarked) [Example 108a, 3-Benzyl-6-(hydroxy(1-methyl-1H-imidazol-5-yl)(6-(trifluoromethyl)pyridin-3-yl)methyl)-2-(trifluoromethyl)quinoline-4-carbonitrile•TFA] | 4.4 nM | 30 nM | 90% |  | 
20 | Cn1cncc1C(O)(c1ccc(C(F)(F)F)nc1)c1ccc2nc(Cl)c(Cc3ccccc3)c(Cl)c2c1 (centres unmarked) [Example 109, (3-Benzyl-2,4-dichloroquinolin-6-yl)(1-methyl-1H-imidazol-5-yl)(6-(trifluoromethyl)pyridin-3-yl)methanol•TFA] | 14 nM | ~4000 nM | 80% |  | 
21 | Cn1cc(-c2nc3ccc(C(O)(c4ccc(C(F)(F)F)nc4)c4cncn4C)cc3c(C#N)c2Cc2ccccc2)cn1 (centres unmarked) [Example 112a, 3-Benzyl-6-(hydroxy(1-methyl-1H-imidazol-5-yl)(6-(trifluoromethyl)pyridin-3-yl)methyl)-2-(1-methyl-1H-pyrazol-4-yl)quinoline-4-carbonitrile•TFA] | 6600 nM | 1000 nM | 91% |  | 
22 | COc1nc2ccc(C(O)(c3cnnn3C)C3CN(C(=O)OC(C)(C)C)C3)cc2c(Cl)c1Cc1ccc(C(F)(F)F)cc1 (centres unmarked) [Example 123, tert-Butyl-3-((4-chloro-2-methoxy-3-(4-(trifluoromethyl)benzyl)quinolin-6-yl)(hydroxy)(1-methyl-1H-1,2,3-triazol-5-yl)methyl)azetidine-1-carboxylate] | 5.2 nM |  |  | 71 nM | 101%
23 | COc1nc2ccc(C(O)(c3cnnn3C)C3CNC3)cc2c(Cl)c1Cc1ccc(C(F)(F)F)cc1 (centres unmarked) [Example 124, Azetidin-3-yl(4-chloro-2-methoxy-3-(4-(trifluoromethyl)benzyl)quinolin-6-yl)(1-methyl-1H-1,2,3-triazol-5-yl)methanol] | 240 nM |  |  | 670 nM | 93%
24 | COc1nc2ccc(C(O)(c3ccc(C)nc3C)C3CN(C(=O)OC(C)(C)C)C3)cc2c(Cl)c1Cc1ccc(C(F)(F)F)cc1 (centres unmarked) [Example 125, tert-Butyl-3-((4-chloro-2-methoxy-3-(4-(trifluoromethyl)benzyl)quinolin-6-yl)(2,6-dimethylpyridin-3-yl)(hydroxy)methyl)azetidine-1-carboxylate] | 9.4 nM |  |  | 290 nM | 100%
25 | COCCN(C)c1nc2ccc(C(O)(c3ccc(Cl)cc3)c3cncn3C)cc2c(Cl)c1Cc1ccc(-n2cccn2)cc1 (centres unmarked) [Example 127, {4-Chloro-2-[(2-methoxyethyl)(methyl)amino]-3-[4-(1H-pyrazol-1-yl)benzyl]quinolin-6-yl}(4-chlorophenyl)(1-methyl-1H-imidazol-5-yl)methanol] | 350 nM |  |  | 240 nM | 101%

— EP3057951B1, “METHYLENE LINKED QUINOLINYL MODULATORS OF ROR-GAMMA-T” (Janssen Pharmaceutica NV, priority 2013, dated 2015)
